Measurements: patent US20260007758A1, “SO[…]-2 RECEPTOR (SST2R) NON-PEPTIDE DRUG CONJUGATES AND USES THEREOF” (Crinetics Pharmaceuticals, Inc., priority 2024, published 2026)

Tests used:
Format in all cases: cell-based
[1] = test system: NCI-H524 human small cell lung cancer cells; assay: H524 assay: inhibition of cell proliferation (CellTiter Glo); conditions: 2 h treatment, washout, additional 70 h incubation
Description: NDCs of the present invention were assessed in an in vitro assay evaluating the inhibition of cell proliferation. NCI-H524 (ATCC) human small cell lung cancer cells were plated in 96-well V-bottom plates (Costar) at a concentration of 5,000 cells/well. 24 h later, the cells were treated for 2 h with a NDC. NDC starting dose was 1 uM and two-fold serial dilutions were done for a total of 11 points. After 2 h of treatment, cells were spun down, and the drug-containing media was removed, and fresh complete media was added and used to resuspend the cells, which were spun again. After removal of the media, the cells were resuspended in complete medium and incubated for an additional 70 h. Cell proliferation was assessed using the CellTiter Glo Assay according to the standard protocol (Promega). Luminescence was measured using a TECAN plate reader. Percent proliferation inhibition was calculated using the following formula: % inhibition=(Luminescence Control−Luminescence Treatment)/Luminescence Control*100. IC50 curves were generated using the nonlinear regression analysis (four-parameter) with GraphPad Prism 9.

[2] = target: T1, human somatostatin receptor subtype 2 (Homo sapiens, UniProt P30874); assay: Functional assay for SSTR2 agonists (HTRF cAMP); conditions: CHO-K1 cells stably expressing human SST2; NKH477-stimulated cAMP; 20 min at 37 C; read-out: hSST2 cAMP Avg EC50
T1 construct: expressed in transfected cells
T1 sequence (P30874 whole entry): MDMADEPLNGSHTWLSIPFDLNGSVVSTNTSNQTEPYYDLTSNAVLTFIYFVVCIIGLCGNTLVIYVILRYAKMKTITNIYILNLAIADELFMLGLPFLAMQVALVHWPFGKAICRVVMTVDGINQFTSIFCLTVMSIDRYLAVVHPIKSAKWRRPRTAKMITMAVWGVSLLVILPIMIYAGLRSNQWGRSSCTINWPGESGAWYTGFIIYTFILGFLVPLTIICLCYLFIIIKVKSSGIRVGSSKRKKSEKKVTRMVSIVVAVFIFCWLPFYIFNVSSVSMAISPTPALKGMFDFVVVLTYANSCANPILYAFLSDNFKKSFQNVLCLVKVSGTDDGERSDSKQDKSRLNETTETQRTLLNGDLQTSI
Excerpt: General overview: All five SSTR subtypes are Gi coupled G-protein coupled receptors (GPCRs) that lead to decreases in intracellular cyclic AMP (cAMP) when activated by an agonist. Therefore, measurement of intracellular cAMP levels can be used to assess whether compounds of the invention are agonists of SSTR subtypes (John Kelly, Troy Stevens, W. Joseph Thompson, and Roland Seifert, Current Protocols in Pharmacology. 2005, 2.2.1-2.2). One example of an intracellular cAMP assay is described below.
Four days prior to the assay, 2,000 Chinese hamster ovary cells (CHO-K1, ATCC #CCL-61) stably expressing the human somatostatin receptor subtype 2 are plated in each well of a 96-well tissue culture-treated plate in Ham's F12 growth media (ThermoFisher #10-080-CM) supplemented with 10% donor bovine serum (Gemini Bio-Products #100-506), 100 U/mL penicillin; 100 ug/mL streptomycin, 2 mM L-glutamine (Gemini Bio-Products #400-110) and 0.2 mg/mL hygromycin B (GoldBio #31282-04-9). The cells are cultured at 37° C., 5% CO2 and 95% humidity. cAMP is measured with HTRF dynamic cAMP assay (Cisbio. #62AM5PEJ) per manufacturer's instructions. […] The cells are incubated for 20 minutes at 37° C. (the final concentration of the compounds of the invention are typically 0-10,000 nM). The cells are treated with 50 μL of lysis buffer (HRTF cAMP kit, Cisbio) and incubated at room temperature for 30 minutes with rotary shaking at 600 rpm, and then diluted with 150 μL of stimulation buffer and shaken for an additional five minutes at 300 rpm. The lysate is transferred to 384-well plates and incubated for 1-24 hours at room temperature, and cAMP accumulation is detected by d2-labeled cAMP and Anti-cAMP-Cryptate. The time-resolved fluorescent signal is read using a m1000 Pro (Tecan) or CLARIOStar (BMG Labtech) microplate reader, where the samples are excited with light at 340 nm and emission light is measured at 620 nm and 665 nm. The data is expressed as a calculation of the fluorescence ratio (665 nm/620 nm). The intracellular cAMP concentrations are calculated by regression to a standard curve and are plotted vs, the concentration of the compounds of the invention. The EC50 of the compounds are calculated using standard methods. All data manipulations are in GraphPad Prism v9 (GraphPad, San Diego, CA).

SST2 = target: T2, SST2 (Homo sapiens, UniProt P30874); assay: PathHunter CHO-K1 SST2 Internalization Assay; conditions: PathHunter CHO-K1 SST2 cells; 90 min at 37 C; luminescence; read-out: Internalization EC50
T2 construct: host or cells: PathHunter CHO-K1 SST2 cells
T2 sequence (P30874 whole entry): as above
Description: NDCs of the present invention were assessed in vitro using the human PathHunter CHO-K1 SST2 β-arrestin2 and PathHunter CHO-K1 SST2 Internalization Assays from DiscoverX. The CHO-K cells were seeded in 20 μLs of cell culture medium in a white-walled 384 well tissue culture-compatible plate at a density of 2500 cells/well. After a 48-hour incubation, cells were treated with 5 μLs of a 1:3 serially diluted SST2 NDC prepared at 5× concentration with a final top compound concentration of 10 uM for 90 min at 37 C and in 5% CO2. 11 dilutions were tested as well as one treatment that was compound free. After incubation, the media containing treatments were discarded and 20 μL of a working solution of Beta-Glo from Promega Beta-Go Assay System was added to each well. The plate was then incubated for 60 min at room temperature in the dark. Luminescence was measured using a Tecan plate reader. IC50 curves were generated using the nonlinear regression analysis (four-parameters) with GraphPad Prism 9. Results were the average of duplicates and are corrected for background.

Row | Structure (SMILES) | EC50 [1] | EC50 [2] | EC50 (SST2)
1 | CC[C@H](C)[C@@H]([C@@H](CC(=O)N1CCC[C@H]1[C@H](OC)[C@@H](C)C(=O)N[C@H](C)[C@@H](O)c1ccccc1)OC)N(C)C(=O)[C@@H](NC(=O)[C@H](C(C)C)N(C)C(=O)OCc1ccc(NC(=O)[C@H](C)NC(=O)[C@@H](NC(=O)CCOCCC(=O)N(C)CC(=O)NCCNc2ncc(-c3cc(C)cc(F)c3)c(N3CCC(N)CC3)c2-c2nc3ccc(Cl)cc3[nH]2)C(C)C)c(O[C@@H]2O[C@H](C(=O)NCS(=O)(=O)O)[C@@H](O)[C@H](O)[C@H]2O)c1)C(C)C [Compound 50] | 36 nM | 0.13 nM | 6.8 nM
2 | CC[C@H](C)[C@@H]([C@@H](CC(=O)N1CCC[C@H]1[C@H](OC)[C@@H](C)C(=O)N[C@H](C)[C@@H](O)c1ccccc1)OC)N(C)C(=O)[C@@H](NC(=O)[C@H](C(C)C)N(C)C(=O)OCc1ccc(NC(=O)[C@H](CCCNC(N)=O)NC(=O)[C@@H](NC(=O)CCCCC(=O)NCCNc2ncc(-c3cc(C)cc(F)c3)c(N3CCC(N)CC3)c2-c2nc3ccc(Cl)cc3[nH]2)C(C)C)cc1C(=O)NCC(=O)O)C(C)C [Compound 72] | 40 nM | 0.11 nM | 4.7 nM
3 | CC[C@H](C)[C@@H]([C@@H](CC(=O)N1CCC[C@H]1[C@H](OC)[C@@H](C)C(=O)N[C@H](C)[C@@H](O)c1ccccc1)OC)N(C)C(=O)[C@@H](NC(=O)[C@H](C(C)C)N(C)C(=O)OCc1ccc(NC(=O)[C@H](C)NC(=O)[C@@H](NC(=O)CCOCCC(=O)N(C)CC(=O)NCCNc2ncc(-c3cc(C)cc(F)c3)c(N3CCC(N)CC3)c2-c2nc3ccc(Cl)cc3[nH]2)C(C)C)c(O[C@@H]2O[C@H](C(=O)NCCO)[C@@H](O)[C@H](O)[C@H]2O)c1)C(C)C [Compound 206] | 14 nM | 0.12 nM | 4.5 nM
4 | CC[C@H](C)[C@@H]([C@@H](CC(=O)N1CCC[C@H]1[C@H](OC)[C@@H](C)C(=O)N[C@H](C)[C@@H](O)c1ccccc1)OC)N(C)C(=O)[C@@H](NC(=O)[C@H](C(C)C)N(C)C(=O)OCc1ccc(NC(=O)[C@H](CCCNC(N)=O)NC(=O)[C@@H](NS(=O)(=O)C[C@H](C)CC(=O)CCOCCC(=O)NCCNc2ncc(-c3cc(C)cc(F)c3)c(N3CCC(N)CC3)c2-c2nc3ccc(Cl)cc3[nH]2)C(C)C)c(O[C@@H]2C[C@H](C(=O)O)[C@@H](O)[C@H](O)[C@H]2O)c1)C(C)C [Compound 132] | 410 nM | 0.26 nM | 3.2 nM
5 | CC[C@H](C)[C@@H]([C@@H](CC(=O)N1CCC[C@H]1[C@H](OC)[C@@H](C)C(=O)N[C@H](C)[C@@H](O)c1ccccc1)OC)N(C)C(=O)[C@@H](NC(=O)[C@H](C(C)C)N(C)C(=O)OCc1ccc(NC(=O)[C@H](C)NC(=O)[C@@H](NC(=O)CCOCCC(=O)NCCNc2ncc(-c3cc(C)cc(F)c3)c(N3CCC(N)CC3)c2-c2nc3ccc(Cl)cc3[nH]2)C(C)C)c(O[C@@H]2O[C@H](C(=O)NCC(=O)O)[C@@H](O)[C@H](O)[C@H]2O)c1)C(C)C [Compound 33] | 7 nM | 0.15 nM | 2.5 nM
6 | CC[C@H](C)[C@@H]([C@@H](CC(=O)N1CCC[C@H]1[C@H](OC)[C@@H](C)C(=O)N[C@H](C)[C@@H](O)c1ccccc1)OC)N(C)C(=O)[C@@H](NC(=O)[C@H](C(C)C)N(C)C(=O)OCc1ccc(NC(=O)C(CCCNC(N)=O)NC(=O)C2(NC(=O)CCOCCC(=O)NCCNc3ncc(-c4cc(C)cc(F)c4)c(N4CCC(N)CC4)c3-c3nc4ccc(Cl)cc4[nH]3)CCC2)c(O[C@@H]2O[C@H](C(=O)O)[C@@H](O)[C@H](O)[C@H]2O)c1)C(C)C (stereo partly drawn) [Compound 242] | 70 nM | 0.045 nM | 2.5 nM
7 | CC[C@H](C)[C@@H]([C@@H](CC(=O)N1CCC[C@H]1[C@H](OC)[C@@H](C)C(=O)N[C@H](C)[C@@H](O)c1ccccc1)OC)N(C)C(=O)[C@@H](NC(=O)[C@H](C(C)C)N(C)C(=O)OCc1ccc(NC(=O)[C@H](CCCNC(N)=O)NC(=O)[C@@H](NC(=O)c2cn(CCOCCC(=O)NCCNc3ncc(-c4cc(C)cc(F)c4)c(N4CCC(N)CC4)c3-c3nc4ccc(Cl)cc4[nH]3)nn2)C(C)C)c(O[C@@H]2C[C@H](C(=O)O)[C@@H](O)[C@H](O)[C@H]2O)c1)C(C)C [Compound 131] | 1600 nM | 0.34 nM | 4.5 nM
8 | CC[C@H](C)[C@@H]([C@@H](CC(=O)N1CCC[C@H]1[C@H](OC)[C@@H](C)C(=O)N[C@H](C)[C@@H](O)c1ccccc1)OC)N(C)C(=O)[C@@H](NC(=O)[C@H](C(C)C)N(C)C(=O)OCc1ccc(NC(=O)[C@H](CCCNC(N)=O)NC(=O)[C@@H](NC(=O)CCCC(=O)N(C)CC(=O)NCCNc2ncc(-c3cc(C)cc(F)c3)c(N3CCC(N)CC3)c2-c2nc3ccc(Cl)cc3[nH]2)C(C)C)c(O[C@@H]2O[C@H](C(=O)NCCN)[C@@H](O)[C@H](O)[C@H]2O)c1)C(C)C [Compound 209] | 1.5 nM | 0.11 nM | 2.7 nM
9 | CC[C@H](C)[C@@H]([C@@H](CC(=O)N1CCC[C@H]1[C@H](OC)[C@@H](C)C(=O)N[C@H](C)[C@@H](O)c1ccccc1)OC)N(C)C(=O)[C@@H](NC(=O)[C@H](C(C)C)N(C)C(=O)OCc1ccc(NC(=O)[C@H](CCCNC(N)=O)NC(=O)[C@@H](NC(=O)CCOCCC(=O)NCCNc2ncc(-c3cc(C)cc(F)c3)c(N3CCC(N)CC3)c2-c2nc3ccc(Cl)cc3[nH]2)C(C)C)c(O[C@@H]2O[C@H](C(=O)N3CCOCC3)[C@@H](O)[C@H](O)[C@H]2O)c1)C(C)C [Compound 223] | 9.2 nM | 0.054 nM | 2.8 nM
10 | CC[C@H](C)[C@@H]([C@@H](CC(=O)N1CCC[C@H]1[C@H](OC)[C@@H](C)C(=O)N[C@H](C)[C@@H](O)c1ccccc1)OC)N(C)C(=O)[C@@H](NC(=O)[C@H](C(C)C)N(C)C(=O)OCc1ccc(NC(=O)[C@H](CCCNC(N)=O)NC(=O)[C@@H](NC(=O)[C@H](CCC(=O)O)NC(=O)CCOCCC(=O)NCCNc2ncc(-c3cc(C)cc(F)c3)c(N3CCC(N)CC3)c2-c2nc3ccc(Cl)cc3[nH]2)C(C)C)cc1C(=O)N1CC(N)C1)C(C)C [Compound 91] | 1000 nM | 0.46 nM | 2.5 nM
11 | CC[C@H](C)[C@@H]([C@@H](CC(=O)N1CCC[C@H]1[C@H](OC)[C@@H](C)C(=O)N[C@H](C)[C@@H](O)c1ccccc1)OC)N(C)C(=O)[C@@H](NC(=O)[C@H](C(C)C)N(C)C(=O)OCc1ccc(NC(=O)[C@H](CCCNC(N)=O)NC(=O)[C@@H](NC(=O)[C@@H](CS(=O)(=O)O)NC(=O)CCOCCC(=O)NCCNc2ncc(-c3cc(C)cc(F)c3)c(N3CCC(N)CC3)c2-c2nc3ccc(Cl)cc3[nH]2)C(C)C)cc1C(=O)N1CC(C(=O)O)C1)C(C)C [Compound 77] | 130 nM | 0.092 nM | 4.2 nM
